These results are taken from ChEMBL document CHEMBL1146627, “Synthesis and structure-activity relationships of 1-arylmethyl-3-(1-methyl-2-amino)ethyl-5-aryl-6-methyluracils as antagonists of the human GnRH Receptor” (Bioorg Med Chem Lett, 2003).

The target of this assay is T1, Gonadotropin-releasing hormone receptor (Homo sapiens, UniProt P30968).
T1 sequence (P30968 whole entry): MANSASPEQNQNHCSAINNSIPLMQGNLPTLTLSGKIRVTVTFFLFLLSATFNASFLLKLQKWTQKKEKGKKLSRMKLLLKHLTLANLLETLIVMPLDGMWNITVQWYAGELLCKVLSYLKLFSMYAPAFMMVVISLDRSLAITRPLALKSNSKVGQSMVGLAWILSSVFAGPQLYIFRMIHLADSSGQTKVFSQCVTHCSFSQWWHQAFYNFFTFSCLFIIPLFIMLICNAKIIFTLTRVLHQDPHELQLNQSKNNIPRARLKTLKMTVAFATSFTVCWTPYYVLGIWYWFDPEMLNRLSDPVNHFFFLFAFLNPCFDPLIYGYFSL
Kind of assay: Binding affinity towards human gonadotropin-releasing hormone receptor expressed in HEK293 cells. It is filed as cell-based.
What is called Ki is a dissociation constant, usually derived from enzyme kinetics or from competition with a known ligand. Low readings indicate tighter binding, high ones weaker binding. The compound `COc1cccc(-c2c(C)n(Cc3c(F)cccc3F)c(=O)n([C@H](C)CNCc3ccc(F)cc3)c2=O)c1` gave an inhibitory constant (Ki) of 250 nM. That is a sub-micromolar value.
The same measure for `COc1cccc(-c2c(C)n(Cc3c(F)cccc3F)c(=O)n([C@H](C)CNCc3cccc(F)c3)c2=O)c1`: 85 nM.
The same measure for `COc1cccc(-c2c(C)n(Cc3c(F)cccc3F)c(=O)n([C@@H](C)CNCC(C)C)c2=O)c1`: 1200 nM; for `COc1cccc(-c2c(C)n(Cc3c(F)cccc3F)c(=O)n([C@@H](C)CNCc3ccccc3)c2=O)c1`: 370 nM; for `COc1cccc(-c2c(C)n(Cc3c(F)cccc3F)c(=O)n(C3CCN(Cc4ccccc4)C3)c2=O)c1` (stereo unspecified): 280 nM.
The figure for `COc1cccc(-c2c(C)n(Cc3c(F)cccc3F)c(=O)n(C3CCN(CCc4ccccn4)C3)c2=O)c1` (stereo unspecified) is 8300 nM; for `COc1cccc(-c2c(C)n(Cc3c(F)cccc3F)c(=O)n([C@H](C)CN(C)Cc3ccccc3)c2=O)c1` it is 150 nM.
Consider `COc1cccc(-c2c(C)n(Cc3c(F)cccc3F)c(=O)n([C@H](C)CNCC3CC3)c2=O)c1`, for which the affinity, expressed as Ki, was 780 nM.
The same measure for `COc1cccc(-c2c(C)n(Cc3c(F)cccc3F)c(=O)n([C@H](C)CNCc3ccccc3C)c2=O)c1`: 70 nM; for `COc1cccc(-c2c(C)n(Cc3c(F)cccc3F)c(=O)n([C@H](C)CNCc3ccccc3)c2=O)c1`: 75 nM; for `COc1cccc(-c2c(C)n(Cc3c(F)cccc3F)c(=O)n([C@@H](C)CNCc3ccccc3C)c2=O)c1`: 400 nM.
`COc1cccc(-c2c(C)n(Cc3c(F)cccc3F)c(=O)n([C@H](C)CNCc3ccccc3F)c2=O)c1` yielded a Ki of 90 nM.
Consider `COc1cccc(-c2c(C)n(Cc3c(F)cccc3F)c(=O)n([C@@H](C)CNCC3CC3)c2=O)c1`, for which the Ki is 1600 nM.
The same measure for `COc1cccc(-c2c(C)n(Cc3c(F)cccc3F)c(=O)n([C@H](C)CNCC(C)C)c2=O)c1`: 190 nM.
The figure for `COc1cccc(-c2c(C)n(Cc3c(F)cccc3F)c(=O)n([C@H](C)CN(C)CCc3ccccn3)c2=O)c1` is 20 nM; for `COc1ccc(CNC[C@@H](C)n2c(=O)c(-c3cccc(OC)c3)c(C)n(Cc3c(F)cccc3F)c2=O)cc1` it is 720 nM.
The same measure for `COc1cccc(-c2c(C)n(Cc3c(F)cccc3F)c(=O)n([C@@H](C)CN(C)CCc3ccccn3)c2=O)c1`: 1800 nM; for `COc1cccc(-c2c(C)n(Cc3c(F)cccc3F)c(=O)n(C[C@H](C)N(C)CCc3ccccn3)c2=O)c1`: 5 nM; for `COc1cccc(-c2c(C)n(Cc3c(F)cccc3F)c(=O)n([C@@H](C)CNC3CCCC3)c2=O)c1`: 950 nM.
As to `COc1cccc(-c2c(C)n(Cc3c(F)cccc3F)c(=O)n([C@H](C)CNC3CCCC3)c2=O)c1`, the Ki turned out to be 430 nM. This Ki is about 2.2-fold lower than that of the compound before.
The figure for `COc1cccc(-c2c(C)n(Cc3c(F)cccc3F)c(=O)n([C@@H](C)CNCc3ccccc3F)c2=O)c1` is 550 nM; for `COc1cccc(CNC[C@@H](C)n2c(=O)c(-c3cccc(OC)c3)c(C)n(Cc3c(F)cccc3F)c2=O)c1` it is 20 nM; for `COc1cccc(-c2c(C)n(Cc3c(F)cccc3F)c(=O)n(C3CCNC3)c2=O)c1` (stereo unspecified) it is 15000 nM.
In turn, `COc1cccc(-c2c(C)n(Cc3c(F)cccc3F)c(=O)n([C@@H](C)CN(C)CC3CC3)c2=O)c1` showed a Ki of 7000 nM.
`COc1cccc(-c2c(C)n(Cc3c(F)cccc3F)c(=O)n([C@H](C)CN(C)CC3CC3)c2=O)c1` came in with an inhibition constant Ki of 590 nM.
The same measure for `COc1cccc(-c2c(C)n(Cc3c(F)cccc3F)c(=O)n([C@@H](C)CN(C)Cc3ccccc3)c2=O)c1`: 2000 nM.
